Results: the METLIN SMRT retention time set (Domingo-Almenara et al. 2019)

Assay: gradient 5% acetonitrile 3 min, to 50% in 2 min, to 85% in 15 min, held 3 min, 100 µL/min
Conditions: column: Zorbax Extend-C18 2.1 x 50 mm; eluents: water / acetonitrile, 0.1% formic acid
How it was run: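 Using water and acetonitrile that each contained 0.1% formic acid, mixtures of ~100 pure standards were separated at 100 μL/min on a Zorbax Extend-C18 column (2.1 × 50 mm, 1.8 μm). The HPLC fed a quadrupole time-of-flight mass spectrometer working in positive and negative ionization mode, with dead and dwell volumes of 40 μL and 900 μL. Data were acquired over 3 months. Retention time was read from computationally picked adduct peaks after manual inspection of each.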

| RP-LC retention time [s] | Compound |
| --- | --- |
| 730 | C=C1C(=O)OCC2C(C(=O)O)=CC3C(C)C(C)=CC123 (stereo unspecified) |
| 869 | Cc1ccccc1CN1N=C(C(=O)N2CCCC2)S(=O)(=O)c2ccccc21 |
| 690 | Cn1cnc2c(C(=O)N3CCOCC3)nn(-c3ccc(Cl)cc3)c2c1=O |
| 1360 | CCn1nccc1-c1cccc(-c2noc(-c3cccc(Cl)c3)n2)c1 |
| 707 | CCn1cc(CCNC(=O)Nc2cc(OC)cc(OC)c2)c2cccnc21 |
| 655 | CCN(CC)C(=O)[C@]1(c2ccccc2)C[C@@H]1CN |
| 653 | Cc1ccc(NC(=O)N2CCN(c3cnn4c(C5CC5)nnc4c3)CC2)cc1 |
| 649 | CC(NC(=O)Cc1cccn1-c1ccc(Cl)cc1)c1cccnc1 (stereo unspecified) |
| 994 | Cc1c(-c2noc(-c3ccc(F)cc3)n2)nnn1-c1ccccc1 |
| 772 | COc1ccc(OC)c(S(=O)(=O)Nc2cccn3c(C4CCC4)nnc23)c1 |
| 734 | Cc1ccc(/C=C2\CNC/C(=C\c3ccc(C)cc3)C2=O)cc1 |
| 544 | Cc1nc2ccccn2c(=O)c1Cc1nnc(SCC(=O)NCc2nc3ccccc3[nH]2)n1C |
| 594 | CCOc1ccccc1NC(=O)CN1CCC(c2nnc(-c3ccco3)s2)CC1 |
| 595 | NCCC1CCN(C(=O)Nc2cccc(F)c2)CC1 |
| 635 | Cc1cccc(C)c1NC(=O)N1CCC(c2cc(=O)n3nccc3n2C)CC1 |
| 671 | CCc1cc(=O)n(CC(=O)Nc2ccc3c(c2)OCO3)c(N2CCOCC2)n1 |
| 963 | Cc1cccc(-n2c(=O)c3c(cc(C)n3C)n(CC(=O)Nc3ccc(Br)cc3F)c2=O)c1 |
| 686 | Cn1cc(CCNC(=O)CSc2ccccc2)c2cccnc21 |
| 744 | CCOc1ccc(CNS(=O)(=O)c2ccc3c(c2)CCCC(=O)N3)cc1 |
| 547 | COc1cccc(CNC2CCN(c3ccc(C(=O)NC4CC4)cn3)C2)c1 (stereo unspecified) |
| 739 | CCCCOc1ccc(C(=O)Oc2coc(CSc3nncn3C)cc2=O)cc1 |
| 704 | CCCC(NC(=O)Cc1ccccc1C)C(=O)Nc1nc2ccccc2[nH]1 (stereo unspecified) |

| RP-LC retention time [s] | Compound |
| --- | --- |
| 676 | CCn1cc(CN2C[C@@H](COC)[C@H](c3nc(C)no3)C2)c2ccccc21 |
| 698 | Cc1cccc(Cl)c1NC(=O)CSc1ccc(N2CCCC(C(=O)NC3CC3)C2)nn1 (stereo unspecified) |
| 796 | CC1=NN(c2nc3ccccc3[nH]2)C(=O)C1Cc1ccccc1 (stereo unspecified) |
| 723 | COc1ccc(NC(=O)CN2C(=O)NC3(CCCCC3)C2=O)cc1 |
| 550 | Cc1ccc(CN2C[C@@H](CO)[C@H](NC(=O)c3cnccn3)C2)o1 |
| 1040 | COc1ccc(NC(=O)Cn2cccc2-c2nc(-c3ccc4c(c3)OCO4)no2)cc1OC |
| 875 | O=C(C1=CN(c2ccc(Cl)cc2)c2cc(Cl)ccc2S1(=O)=O)N1CCOCC1 |
| 1240 | Cc1ccc(-c2coc(-c3ccc(NC(=O)CC(C)C)cc3)n2)c(C)c1 |
| 751 | CCOc1ccc(CNC(=O)C2CCCN(C(=O)c3[nH]c(C)c(C(=O)OC)c3C)C2)cc1 (stereo unspecified) |
| 1020 | COCCOC(=O)c1c(C)oc2ccc(OC(=O)c3cccs3)cc12 |
| 1050 | Cc1ccc(C)c(NC(=O)Cn2cccc2-c2nc(-c3ccc4c(c3)OCO4)no2)c1 |
| 656 | CN1CCCN(C(=O)c2cn(-c3ccc(-c4nc(C(C)(C)C)no4)cn3)cn2)CC1 |
| 551 | CN1CCN(c2c(C(=O)c3ccccc3)cnc3cc4c(cc23)OCCO4)CC1 |
| 784 | CN1C2CCC1CC(OC(c1ccccc1)c1ccccc1)C2 (stereo unspecified) |
| 910 | Cc1ccc(-c2nc3ncccn3c2Nc2ccc(C)c(Cl)c2)cc1 |
| 749 | CNC(=O)C1CN(C(=O)c2cccc(C(F)(F)F)c2)CC12CCCC2 (stereo unspecified) |
| 695 | O=C1CCCc2cc(S(=O)(=O)N3CCC(C(=O)NCc4cccs4)CC3)ccc2N1 |
| 1010 | O=C(Nc1ccccc1)C1CCCN(S(=O)(=O)Cc2ccc(Cl)cc2)C1 (stereo unspecified) |
| 710 | O=C(O)c1ccc(N2CCCC2)c(NC(=O)c2cccs2)c1 |
| 877 | COC(=O)c1ccc(N2Cc3cc(Cl)ccc3OCC2=O)cc1 |
| 668 | CCNC(=O)c1cc(-c2ccccc2)n[nH]1 |
| 1080 | O=C1CC(c2nc(-c3ccc(Br)cc3)no2)CN1c1ccccc1 (stereo unspecified) |

| RP-LC retention time [s] | Compound |
| --- | --- |
| 663 | Cn1c(N2CCCC(C(=O)Nc3ccc4c(c3)OCCO4)C2)cc(=O)n(C)c1=O (stereo unspecified) |
| 658 | OCC1O[C@H](O)C(Cl)C(O)C1O (stereo partly specified) |
| 737 | CCN1c2ccccc2C(=O)NC12CCN(C(=O)Nc1ccc3c(c1)OCO3)CC2 |
| 891 | COc1ccccc1Nc1nc(-c2ccccc2)c(CC(=O)O)s1 |
| 1170 | CCCCn1c(=O)c2ccccc2n(Cc2nc(-c3ccc(F)cc3)no2)c1=O |
| 934 | COc1cccc(-c2noc(Cc3nnc(-c4cccc(F)c4)o3)n2)c1OC |
| 872 | CCOC(=O)c1c(S(=O)(=O)N2CCC(C(=O)N3CCc4ccccc4C3)CC2)c(C)n(C)c1C |
| 777 | O=C(NC1CCCC1)C1CCc2sc(C(=O)N3CCCC3)cc2C1 (stereo unspecified) |
| 837 | CC(=O)N1CCc2sc(C(=O)N3CCN(c4ccc(Cl)cc4)CC3)cc2C1 |
| 673 | O=C1CCCN1c1ccc(Cn2nc3c(S(=O)(=O)N4CCCC4)cccn3c2=O)cc1 |
| 1160 | CCCc1ccc(S(=O)(=O)N2C[C@@H]3C(=O)N(C(CC)c4cccs4)C(=O)[C@@H]3C2)cc1 (stereo partly specified) |
| 995 | Cc1ccc(NC(=O)N2CCc3nc(-c4ccccc4)ncc3C2)cc1C |
| 731 | CCc1nnc(-c2cccs2)o1 |
| 769 | CCC(C)C(NC(=O)c1cc(OC)cc(OC)c1)C(=O)Nc1nc2ccccc2[nH]1 (stereo unspecified) |
| 928 | Cc1ccccc1Cn1c(CN2CCC(C(=O)NCCC3=CCCCC3)CC2)cc2ccccc21 |
| 655 | CC1CCCC(NC(=O)Cn2nc(Cc3ccncc3)c3ccccc3c2=O)C1C (stereo unspecified) |
| 639 | CCOC(=O)c1ccc(NC(=O)CN2CCc3[nH]c4c(C)c(C)ccc4c(=O)c3C2)cc1 |
| 674 | O=C(CN1C(=O)CCC1=O)Nc1nnc(-c2ccc(C(F)(F)F)cc2)o1 |
| 1130 | CCCCCn1c(=O)c2ccccc2n(Cc2nc(-c3cccc(OC)c3)no2)c1=O |
| 787 | NC[C@@H]1O[C@H](C23CC4CC(CC(C4)C2)C3)Cc2c1ccc(O)c2O |
| 641 | O=C(CN1CCN(Cc2ccccc2)C1=O)NC1CC1 |
| 843 | CC(=O)N1CCc2cc(-c3ccc(C(=O)NCCc4cccs4)cc3)ccc21 |

| RP-LC retention time [s] | Compound |
| --- | --- |
| 1040 | CC1CCN(S(=O)(=O)c2ccc3nn(Cc4ccccc4Cl)c(=O)n3c2)CC1 |
| 697 | O=C(Cc1nnc(-c2ccc3ncccc3c2)o1)Nc1ccc(F)cc1 |
| 822 | Cc1cc2c(cc1S(=O)(=O)N1CCCC1C(=O)NCCCc1ccccc1)OC(C)C(=O)N2 (stereo unspecified) |
| 558 | COC[C@@H]1CN(Cc2c(C)n[nH]c2C)C[C@H]1c1ccccn1 |
| 1010 | CCn1cc(C(=O)Nc2ccc(F)c(F)c2)c(S(=O)(=O)N2CCSCC2)n1 |
| 663 | O=C(C1=NNc2ccc(Cl)cc2S1(=O)=O)N1CCOCC1 |
| 833 | CCCS(=O)(=O)N1CCc2c(c(CN(C(=O)c3ccccc3)c3ccccc3)nn2C)C1 |
| 845 | COCCN(CC(=O)N1CCc2sccc2C1COc1ccccc1OC)C(=O)C(C)C (stereo unspecified) |
| 1190 | CCCn1cc(C2=CCN(S(=O)(=O)c3ccc(F)c(Cl)c3)CC2)c2cccnc21 |
| 1180 | Cc1ccc(-c2nc(NC(=O)c3cncc(Br)c3)sc2C)cc1 |
| 1060 | CCN1C(=O)C(C(=O)Nc2cccc(C)c2)C2CC1(C)Oc1ccccc12 (stereo unspecified) |
| 710 | CN1CCCc2cc(C(CNC(=O)C(=O)NCc3ccccc3)N3CCCC3)ccc21 (stereo unspecified) |
| 1170 | O=C(Nc1ccc(-c2nc(-c3ccc(Cl)cc3)no2)cc1)c1ccco1 |
| 1250 | Cn1nccc1-c1cccc(-c2noc(-c3ccc(Cl)cc3)n2)c1 |
| 1250 | CCOc1ccc(-c2csc(Cc3nc(-c4ccc(F)cc4)no3)n2)cc1 |
| 1110 | O=S(=O)(c1ccc(-c2noc(-c3ccc(F)c(F)c3)n2)cc1)N1CCOCC1 |
| 1060 | Cc1ccc(Cn2nc3ccc(S(=O)(=O)N4CCC(C)CC4)cn3c2=O)cc1 |
| 641 | CCCCCCCNCc1ccc2c(c1)n(C)c(=O)n2C |
| 993 | O=C(Nc1ccccc1)c1cn(CC2CCCO2)cc2c(=O)n(-c3ccccc3)nc1-2 (stereo unspecified) |
| 951 | Cc1cccc(OCC(=O)NC2(c3nc(C)no3)CCCCC2)c1 |
| 743 | O=C(NCc1csc(-c2cccs2)n1)C1CCN(C(=O)c2ccccc2F)CC1 |

| Compound | RP-LC retention time [s] |
| --- | --- |
| CCc1c(C(=O)O)nnn1Cc1c(F)cccc1Cl | 742 |
| COc1ccc2c(c1)C1(CCN(C(=O)c3cccc(Cl)c3)C1)C(=O)N2C (stereo unspecified) | 831 |
| CCC(C)NC(=O)c1c(O)c2sccc2n(Cc2ccccc2)c1=O (stereo unspecified) | 1310 |
| N[C@H]1C[C@@H]1c1ccccc1 | 578 |
